We go through one molecule from patent publication EP0551200A1, “Protein phosphatase inhibitors for use in therapy” (priority 1992, dated 1993).

Molecules are shown by their SMILES.

Assay [1] has as its system EGFR. Briefly: Phosphorylation of EGF receptor, immunoprecipitation from 32P-labeled fibroblasts. Format: cell-based, human. The note with it: 250 nM, 15 min. The protocol: Phosphorylation of EGFR by TNF, IL-1, EGF, PDGF (indicated as PGF) and okadaic acid (OA). ³²P-Labeled cultures of fibroblast cells were treated with TNF (100 units/ml), IL-1 (100 units/ml), EGF (50 ng/ml), PDGF (32 ng/ml) or OA (250 nM) for 15 min. Control is indicated by 0. The EGFR was immunoprecipitated with anti-EGFR antibody (Oncogene Science, Manhasset, N.Y., US). The proteins were subjected to 7.5% SDS-PAGE and autoradiography.
IL-1, TNF, or Okadaic Acid Treatment Stimulate Phosphorylation of the EGF Receptor - One feature of TNF and IL-1 action is the transmodulation of the EGFR via phosphorylation. Okadaic acid was added to human fibroblasts to see if it can also mimic this effect of TNF and IL-1. ³²P-Labeled human fibroblasts were treated with ligand (TNF, IL-1, EGF, PDGF, or okadaic acid) for 15 min and extracted for analysis. The extracts were immunoprecipitated with anti-EGFR antibodies. The immunoprecipitated EGFR derived from variously treated fibroblasts was analyzed by SDS-PAGE and autoradiography.

Assay [2] has as its system Egr-1 mRNA. Briefly: cells. Format: cell-based, mouse. As to the method: 10 µg of RNA was applied to each lane and subjected to Northern blot analysis using an Egr-1 specific cDNA probe [1.6 kb Bgl II fragment (Sukhatme et al, Cell 53, 37-48, 1988)]. The same blots were rehybridized with actin or GADPH cDNA for normalizing the amount of RNA loaded. The blots were dried and autoradiographed. • (A). Time course of okadaic acid-induced Egr-1 and c-jun messages in primary human fibroblasts. Quiescent human fibroblasts were induced with 1 µM of okadaic acid for the time periods indicated. […] Time course of okadaic acid-induced Egr-1 message in Balb/c 3T3 cells. Quiescent Balb/c 3T3 cells were induced with okadaic acid (0.5µM) for the times indicated. • (C). Concentration dependent induction of Egr-1 message by okadaic acid in Balb/c 3T3 cells. Quiescent Balb/c 3T3 cells were induced with the indicated concentrations of okadaic acid for 1 h. As controls, different concentrations of DMSO were included. These corresponded to the amounts present in 0.25 µM okadaic acid (0.025% dimethyl sulphoxide (DMSO)) 0.5 µM okadaic acid (0.05% DMSO) and 1 µM okadaic acid (0.1%). • (D). Concentration dependent and time course induction of Egr-1 message by calyculin A. Quiescent Balb/c 3T3 cells were induced with different concentrations of calyculin A for 1 h. Northern analysis of this dose-dependent induction by calyculin A is shown on the left panel of the figure. […] Northern analysis of this time course induction by calyculin A is shown in the right panel of the figure. The same blot was rehybridized with pCMV-fos (Curran et al, Oncogene 2, 79-84, 1987) and pCMV-jun (Rauscher et al, 1988) shown in the middle panel. The blot was dried and autoradiographed.
Quiescent primary human fibroblasts were incubated with okadaic acid (OA) or TPA for 1 or 3 h. The concentrations of OA and TPA were 0.5 µM and 120 ng/ml, respectively. The concentration of 1-(5-isoquinolinylsulfonyl)-2-methylpiperazine dihydrochloride (H7) and N-(2-guanidinoethyl)-5-isoquinolinesulphonamide dihydrochloride (HA1004) used was 25 µM. The cells were pre-treated for 15 min with H7 or HA1004 before they were induced by OA or TPA for 1 or 3 h. Cells were harvested, RNA was isolated and subjected to Northern blot analysis. The blot was probed with Egr-1 or GADPH cDNA. • (B). As a positive control, primary human fibroblasts were treated with TPA (30 ng/ml) for 1 h (1st lane). The fibroblasts were also pre-treated with H7 (25 µM) or HA1004 (25 µM) for 15 min before treatment with TPA for 1 h (2nd and 3rd lanes respectively). […] The blot was probed with Egr-1 or actin cDNA. • (C). Quiescent Balb/c 3T3 cells were incubated with OA, TPA or dBt-cAMP for 1 h or pre-treated with H7 (25 µM) or HA1004 (25 µM) for 15 min and then incubated with each of the agonists for 1 h. Cells were harvested, RNA was isolated and subjected to Northern blot analysis. The concentration of each agonist used was as follows: lane a: 0.5 µM of OA, lane b: 100 ng/ml of TPA, lane c: 1 mM of dBt-cAMP, lane d: H7 plus OA (0.5 µM), lane e: H7 plus TPA (100 ng/ml), lane f: H7 plus dBt-cAMP (1 mM), lane g: HA1004 plus OA (0.5 µM), lane h: HA1004 plus TPA (100 ng.ml), lane i: HA1004 plus dBt-cAMP (1mM). The blot was probed with Egr-1 or GADPH cDNA.
Cell Cultures and Reagents. Human diploid foreskin fibroblasts were a gift from Dr J Vilcek (New York University, New York). The cells were grown in MEM supplemented with 10% fetal bovine serum (Hyclone, Logan, UT, US), Mouse Balb/c 3T3 cells were purchased from the American Type Culture Collection and grown in Dulbecco's MEM (DMEM) supplemented with 10% fetal bovine serum. Okadaic acid, calyculin A, H7, and HA1004 were purchased from Biomol Research Laboratories (Plymouth Meeting, PA, US). TPA, puromycin and dBt-cAMP were purchased from Sigma (St Louis, MO, US) 1 mM stock solutions of okadaic acid or calyculin A were solubilized in DMSO. [³²P]orthophosphate and other radioactive chemicals were purchased from Du Pont-New England Nuclear (Boston, MA). […]

Consider `C=C1[C@@H](O)[C@@H]2O[C@]3(CC[C@H](/C=C/[C@@H](C)[C@@H]4CC(C)=C[C@@]5(O[C@H](C[C@@](C)(O)C(=O)O)CC[C@H]5O)O4)O3)CC[C@H]2O[C@@H]1[C@@H](O)C[C@H](C)[C@H]1O[C@@]2(CCCCO2)CC[C@H]1C` [okadaic acid], for which the “stimulation of phosphorylation of the EGFR (in words)” value in assay [1] was “to an even greater extent than does TNF, IL-1, EGF or PDGF”. Besides, in assay [2] (0.5 µM), the “time for which the Egr-1 mRNA level is maintained” value was “up to 7 h”, the “time of maximal induction of Egr-1 mRNA” value is recorded as “about 2 h” and the “time to induction of Egr-1 mRNA” value is not above 1 h. In addition, the “concentration inducing an equivalent fold increase in Egr-1 mRNA” value in assay [2] (1 h, calyculin A compared with okadaic acid) is on record as 1000 nM. In addition, the fold induction at 0.5 µM in assay [2] (Mus musculus, BALB/c3T3, 0.5 µM, maintained level, read-out: Egr-1 mRNA level over control) is 30 to 40.
